Results reported in publication PMC7486940, “Pre-symptomatic Caspase-1 inhibitor delays cognitive decline in a mouse model of Alzheimer disease and aging” (Nature Communications, 2020).

Legend:
J20 mice [1] = test: novel object recognition (NOR), episodic memory; type: in vivo, mouse
Description: (§1) VX-765 (Adooq Bioscience, Irvine, CA, USA) was dissolved 5 mg • ml^−1 in 20% cremophor in dH2O[60] (Sigma-Aldrich, ON, Canada) and administered IPWT and J20 mice received three injections per week of either 50 mg • kg^−1 VX-765 or 20% cremophor vehicle for 4 weeks between 2 and 3 months of age. Mice were longitudinally followed starting 4 weeks after the last injection [4-week washout (WO)], then every other month at 12- and 20-week WO (6 and 8 months of age, respectively). Intermediate 8- and 16-week WO periods were also looked at with a smaller number of mice. After each WO period, animals were randomly chosen, independent of behavioural performance, for sacrifice and assigned to either histological or biochemical analysis (Fig. 2a).
(§2) Open-field and novel object recognition (NOR) were measured at all WO periods. The Barnes maze was assessed at 12- and 20-week WO. Open field: Mice were placed in an open-field chamber, composed of a plexiglass box with no ceiling and white floor, and allowed to explore for 5 min. NOR: Mice were pre-exposed to two identical objects in the open-field chamber for 5 min. Two hours after pre-exposure, mice were placed back into the chamber and exposed to one familiar object and one novel object for 5 min (test phase). Mice were exposed to a specific object only once across multiple test sessions. Barnes maze: Learning acquisition (days 1–4)—each mouse was trained to find the target and enter the escape box within 180 s. Four trials per day, ~15 min apart, were performed for 4 consecutive days. Probe (day 5)—a single, 90 s trial was performed on each mouse to measure primary latency and number of errors to reach the blocked target. Target hole location was changed between the two separate test sessions. Behavioural scoring was blinded to mouse genotype and treatment.

WT mice [2] = test: novel object recognition (NOR), episodic memory; type: in vivo, mouse
Description: as §1, §2

J20 mice [3] = test: Barnes maze, spatial learning and memory; type: in vivo, mouse
Description: as §1, §2

WT mice [4] = test: Barnes maze, spatial learning and memory; type: in vivo, mouse
Description: as §1, §2

APP = APP expression and processing (real-time PCR, western blot) in J20 hippocampus; type: in vivo, mouse
Description: as §1
Mice for biochemical analyses were isoflurane anesthetized, sacrificed by cervical dislocation, and the hippocampus and cortex dissected out and immediately frozen on dry ice. Brain tissue was homogenized in radioimmunoprecipitation assay (RIPA) buffer (50 mM Tris-HCl pH: 7.4, 1% NP-40, 0.25% Na-deoxycholate, 150 mM NaCl, 1 mM EDTA, with protease inhibitors), and supernatants placed in Laemmli (5% 2-β mercaptoethanol with protease inhibitors).
(§3) Twenty to sixty micrograms of protein or 16 μl of precipitated protein from culture medium were separated on SDS-PAGE or 4–12% NuPAGE Bis-Tris gels (Invitrogen, Carlsbad, CA, USA) with MES buffer (Invitrogen) and transferred onto PVDF membranes (Bio-Rad) according to the manufacturer’s instructions. […] Protein levels were normalized to β-actin and expressed as a percentage relative to the vehicle-treated WT group, except for APP which was compared to the vehicle-treated J20 group. […]
RNA was extracted with Qiazol and purified using the miRNeasy mini kit (Qiagen, CA, USA). RNA quality and quantity were determined using a spectrophotometer (DS-11 FX+, DeNovix, DE, USA) and RNA was reverse transcribed using First Strand cDNA Synthesis Kit (Qiagen) following the manufacturer’s protocol. […]

IDE and Nep = IDE and Nep mRNA and protein levels; type: in vivo, mouse; details: hippocampus
Description: as §1, §3

[5] = female, C57BL/6J, mouse, in vivo, ip, 50 mg/kg, 0.25 h
Description: Plasma, whole brain and CSF concentrations of VX-765 and its active metabolite, VRT-043198, were determined by LC-MS/MS at Paraza Pharma (Montreal, QC, Canada). Fourteen C57BL/6J female mice received a single IP dose of 50 mg · kg^−1 VX-765 and 2 mice per time point were euthanized at 0.25, 0.5, 1, 3, 6, 8 and 24 h post-injection. Mice were isoflurane anesthetized to collect CSF and perform a cardiac puncture followed by whole body perfusion with PBS. Plasma samples were extracted 1:1 in spiking solution and internal standard solution containing 0.1 μM glyburide in acetonitrile. Brain and CSF samples were extracted 1:1 in spiking solution and internal standard solution containing 0.2 μM labetalol in 50:50 methanol:acetonitrile. Samples were centrifuged at 4000 × g for 10 min at 4 °C, the plasma supernatant diluted 1:1 and the brain and CSF supernatant diluted 1:2 in H2O, and 5 μl was injected into a Quantis LC-MS/MS system for analysis.

Casp1 = test system: Casp1; parameters: method as in PMID 30254377; details: in vitro Casp1; cited from earlier work
[6] = cited from earlier work
all other caspases = test system: all other caspases; parameters: method as in PMID 30254377, PMID 17289835; details: cited from earlier work
[7] = test system: proteolipid protein-synuclein mouse model; parameters: method as in PMID 27482103; details: proteolipid protein-synuclein mouse model of multiple systems atrophy; cited from earlier work
[8] = J20, 12-week WO, probe 24 h after last training day

With `CCO[C@@H]1OC(=O)C[C@@H]1NC(=O)[C@@H]1CCCN1C(=O)[C@@H](NC(=O)c1ccc(N)c(Cl)c1)C(C)(C)C` [VX-765, (S)-1-((S)-2-{[1-(4-amino-3-chloro-phenyl)-methanoyl]-amino}-3,3-dimethyl-butanoyl)-pyrrolidine-2-carboxylic acid ((2R,3S)-2-ethoxy-5-oxo-tetrahydro-furan-3-yl)-amide] the “delay of the onset of cognitive impairment” value (J20 mice [1]; J20, 50 mg/kg IP 3x/week for 1 month, pre-symptomatic) was “at least 5 months”, the “NOR discrimination index (NOR impairment)” value (J20 mice [1]; J20, pre-symptomatic 50 mg/kg IP 3x/week for 1 month, 4-, 8-, 12-, 16- and 20-week WO, vs vehicle-treated J20) was “protected J20 mice against NOR impairment at all WO periods” and the “percentage of NOR impaired mice” value (J20 mice [1]; VX-765-treated J20, 50 mg/kg IP 3x/week for 1 month) was “increased consistently between 4- and 20-week WO”. For the same compound, the “NOR performance over washout” value (J20 mice [1]; VX-765-treated J20, 50 mg/kg IP 3x/week for 1 month, 4- vs 20-week WO) was “declined between 4- and 20-week WO”, the NOR performance (WT mice [2]; VX-765-treated WT, 6-month-old (12-week WO) vs VX-765-treated 4-month-old WT) was “increased” and the NOR performance (WT mice [2]; WT, 8-month-old (20-week WO), 50 mg/kg IP 3x/week for 1 month, vs same age vehicle-treated WT) was “increased”. The “percentage of NOR impaired mice” value (WT mice [2]; WT, 50 mg/kg IP 3x/week for 1 month, 12- to 20-week WO) was “increased between 12- and 20-week WO in the vehicle-treated, but not VX-765-treated WT mice”, the “Barnes maze probe preference towards the target area” value (J20 mice [3]; 12-week WO) was “All groups, except the vehicle-treated J20 group, showed a preference towards the target area” and the “Barnes maze training primary latency” value (J20 mice [3]; 12-week WO, all groups) was “did not differ between groups”. The “Barnes maze learning acquisition primary errors” value (J20 mice [3]; J20, 12-week WO, 50 mg/kg IP 3x/week for 1 month) was “prevented this learning deficit in J20 mice and reduced the number of errors committed to near WT levels”, the “Barnes maze probe primary errors” value (J20 mice [3]; [8]) was “VX-765 treatment prevented this deficit” and the “Barnes maze probe primary latency” value (J20 mice [3]; [8]) was “did not differ between vehicle- or VX-765-treated J20 and vehicle-treated WT groups”. The “Barnes maze learning deficits” value (J20 mice [3]; J20, 20-week WO) was “vehicle-, but not VX-765-treated, J20 mice exhibited learning deficits”, the “Barnes maze probe primary latency and primary errors” value (J20 mice [3]; J20, 20-week WO) was “these deficits were prevented with VX-765 treatment” and the “Barnes maze probe primary latency and primary errors” value (WT mice [4]; 12-week WO, vs vehicle-treated WT) was “decreased primary latency and primary errors compared to vehicle-treated WT mice”. For the same compound, the “Barnes maze probe primary latency and primary errors” value (WT mice [4]; 20-week WO) was “This effect was attenuated at 20-week WO”, the “APP protein levels (anti-APP C-terminal antibody)” value (APP; 4- and 20-week WO) was “not affected” and the “βCTF and αCTF levels” value (APP; 4- or 20-week WO, vehicle vs VX-765) was “no differences in βCTF and αCTF levels”. For the same compound, the “human APP mRNA levels” value (APP; 4-, 12- or 20-week WO) was “did not alter”, the “Nep mRNA and protein levels” value (IDE and Nep) was “remained unchanged” and the “IDE mRNA or protein levels” value (IDE and Nep; WT vs vehicle- or VX-765-treated J20) was “did not change between WT and vehicle- or VX-765-treated J20 mice”. For the same compound, the “CSF concentration relative to respective in vitro Casp1 IC50” value [5] was 100 fold, the “brain concentration relative to respective in vitro Casp1 IC50” value [5] was 50 fold and the “plasma concentration relative to respective in vitro Casp1 IC50” value [5] was 100 fold. For the same compound, the IC50 (Casp1) was 3.68 nM, the “in vitro half-life (t1/2)” value [6] was ~ 157 h and the “specificity to Casp1” value (all other caspases) was “specificity to Casp1 against all other caspases”. For the same compound, the alpha-synuclein toxicity [7] was “protect against alpha-synuclein toxicity”.
